Data: patent publication US8722030B2, “Composite vaccine adjuvant” (Institute of Medical Biology, Chinese Academy of Medical …, priority 2011, dated 2014)

Columns and labels:
Conditions in all cases: P<0.05
anti-HBs IgG [1] = assay: Test 1: serum anti-HBs IgG level by ELISA after immunization with hepatitis B surface antigen plus adjuvant (composite adjuvant of embodiment 1)
Description: Both of the total volume of vaccines and the composite vaccine adjuvant for injection were 0.1 ml.
In the single sodium ferulate adjuvant group, sodium ferulate 10 mg and hepatitis B surface antigen 5 μg were mixed and dissolved into physiological saline 0.1 ml, and then were injected into mice subcutaneously.
(§1) In the adjuvant-free group, hepatitis B surface antigen 5 μg were mixed and dissolved into physiological saline 0.1 ml, and then were injected into mice subcutaneously.
(§2) In the blank group, each mouse was injected with physiological saline 0.1 ml.
(§3) Immunization schemes: three times immunization in total, subcutaneous injection of ICR mice in 0, 1, 6 month respectively.
(§4) B. ELISA Detection of Serum Anti-HBs IgG Level […]
(§5) The obtained experimental data were analyzed by single factor analysis of variance using SPSS11.5 statistics software, and P<0.05 having a statistically significance.

anti-HBs IgG [2] = assay: Test 2: serum anti-HBs IgG level by ELISA after immunization with hepatitis B surface antigen plus adjuvant (composite adjuvant of embodiment 2)
Description: Both of the total volume of vaccine for injection and of the composite vaccine adjuvant were 0.1 ml.
In the single sodium ferulate adjuvant group, sodium ferulate 25 mg and hepatitis B surface antigen 5 μg were mixed and dissolved into physiological saline 0.1 ml, and then were injected into mice subcutaneously.
In the adjuvant-free group, hepatitis B surface antigen 5 μg were dissolved into physiological saline 0.1 ml, and then were injected into mice subcutaneously.
as §2, §3, §4, §5

anti-HBs IgG [3] = assay: Test 3: serum anti-HBs IgG level by ELISA after immunization with hepatitis B surface antigen plus adjuvant (composite adjuvant of embodiment 3)
Description: Both of the total volume of vaccines for injection and of the composite vaccine adjuvant were 0.1 ml.
In the single sodium ferulate adjuvant group, sodium ferulate 50 mg and hepatitis B surface antigen 5 μg were mixed and dissolved into physiological saline 0.1 ml, and then were injected into mice subcutaneously.
as §1, §2, §3
B. ELISA Detection of Serum Anti-HBs IgG Level
After 4, 8, 16, 24, 32 weeks of the initial immunization, collect vein blood of mouse tail, separate serum, and then use ELISA to detect the serum anti-HBs IgG level by method of protein microporous kit. […]
as §5

Measured: antibody levels compared with the aluminum adjuvant control group

[OH-].[OH-].[Zn+2] [zinc hydroxide]
significantly higher: all assays above
